pIC50: −log10 of the molar value. ≈ marks a conversion by molar mass, not a printed value. Calls of active or inactive are those of the source. No cut-off for these calls is given here.
How the values were obtained:
U-87 MG [1] = experiment: Antiproliferative activity against human U87 cells assessed as inhibition of cell growth incubated for 24 hrs by CCK-8 assay; format: functional, cell-based, U-87MG ATCC
MCF7 = experiment: Antiproliferative activity against human MCF7 cells assessed as inhibition of cell growth incubated for 24 hrs by CCK-8 assay; format: functional, cell-based; details: MCF7, 24 h
HCT-116 = experiment: Antiproliferative activity against human HCT-116 cells assessed as inhibition of cell growth incubated for 24 hrs by CCK-8 assay; format: functional, cell-based; details: HCT-116, 24 h
KYSE-150 cell line = experiment: Antiproliferative activity against human KYSE-150 cell line assessed as inhibition of cell growth incubated for 24 hrs by CCK-8 assay; format: functional, cell-based; details: KYSE-150, 24 h
[2] = Kinetic solubility in PBS at pH 7.4 incubated under shaking condition for 24 hrs by LC-MS/MS analysis; format: physicochemical; details: read-out: Kinetic_solubility
[3] = Apparent permeability across apical to basolateral side in human Caco-2 cells at 2 uM incubated for 2 hrs by LC-MS/MS analysis; format: ADME, cell-based; details: Caco-2
[4] = Apparent permeability across basolateral to apical side in human Caco-2 cells at 2 uM incubated for 2 hrs by LC-MS/MS analysis; format: ADME, cell-based; details: Caco-2
[5] = Efflux ratio of apparent permeability from basolateral to apical side over apical to basolateral side in human Caco-2 cells at 2 uM incubated for 2 hr by LC-MS/MS analysis; format: ADME, cell-based; details: Caco-2
[6] = Metabolic stability in liver microsomes (unknown origin) assessed as half life incubated for 60 mins by LC-MS/MS analysis; format: ADME, Microsome
[7] = Metabolic stability in liver microsomes (unknown origin) assessed as compound remaining incubated for 60 mins by LC-MS/MS analysis; format: ADME, Microsome; details: read-out: Stability
U-87 MG [8] = experiment: Induction of apoptosis in human U87 cells at 80 uM incubated for 24 hrs by Annexin V-FITC/PI staining based flow cytometry; format: functional, U-87MG ATCC
U-87 MG [9] = experiment: Induction of apoptosis in human U87 cells assessed as increase in number of apoptotic cells at 80 uM incubated for 24 hrs by Annexin V-FITC/PI staining based flow cytometry; format: functional, cell-based; details: U-87MG ATCC
U-87 MG [10] = experiment: Induction of apoptosis in human U87 cells assessed as increase in number of early apoptotic cells at 80 uM incubated for 24 hrs by Annexin V-FITC/PI staining based flow cytometry; format: functional, cell-based; details: U-87MG ATCC
U-87 MG [11] = experiment: Induction of apoptosis in human U87 cells assessed as increase in number of late apoptotic cells at 80 uM incubated for 24 hrs by Annexin V-FITC/PI staining based flow cytometry; format: functional, cell-based; details: U-87MG ATCC
U-87 MG [12] = experiment: Induction of apoptosis in human U87 cells assessed as increase in number of necrotic cells at 80 uM incubated for 24 hrs by Annexin V-FITC/PI staining based flow cytometry; format: functional, cell-based; details: U-87MG ATCC
U-87 MG [13] = experiment: Induction of cell cycle arrest in human U87 cells assessed as decrease in number of cells at G1 phase at 80 uM incubated for 24 hrs by RNase/PI staining based flow cytometry; format: functional; details: U-87MG ATCC
U-87 MG [14] = experiment: Induction of cell cycle arrest in human U87 cells assessed as decrease in number of cells at G2 phase at 80 uM incubated for 24 hrs by RNase/PI staining based flow cytometry; format: functional; details: U-87MG ATCC
U-87 MG [15] = experiment: Induction of cell cycle arrest in human U87 cells assessed as increase in number of cells at S phase at 80 uM incubated for 24 hrs by RNase/PI staining based flow cytometry; format: functional; details: U-87MG ATCC
U-87 MG [16] = experiment: Inhibition of cell migration in human U87 cells at 80 uM incubated for 48 hrs by scratch assay; format: functional, cell-based; details: U-87MG ATCC
U-87 MG [17] = experiment: Inhibition of cell invasion in human U87 cells incubated for 48 hrs by crystal violet staining based microscopic analysis; format: functional; details: U-87MG ATCC
HUVEC = experiment: Antiangiogenesis activity in human HUVEC cells assessed as inhibition of vascular structure formation at 80 uM incubated for 12 hrs by inverted fluorescence microscopic analysis; format: functional, cell-based
U-87 MG [18] = experiment: Antiangiogenesis activity in human U87 cells assessed as inhibition of neovascularization at 80 uM incubated for 12 hrs by inverted fluorescence microscopic analysis; format: functional, cell-based; details: U-87MG ATCC
U-87 MG [19] = experiment: Antitumor activity in human U87 cells assessed as downregulation of […] expression at 80 uM incubated for 24 hrs by Western blotting analysis; format: functional, cell-based; details: U-87MG ATCC
U-87 MG [20] = experiment: Antitumor activity in human U87 cells assessed as downregulation of CD133 expression at 80 uM incubated for 24 hrs by Western blotting analysis; format: functional, cell-based; details: U-87MG ATCC
U-87 MG [21] = experiment: Antitumor activity in human U87 cells assessed as downregulation of ANGP-2 expression at 80 uM incubated for 24 hrs by Western blotting analysis; format: functional, cell-based; details: U-87MG ATCC
U-87 MG [22] = experiment: Antitumor activity in human U87 cells assessed as downregulation of VEGFR2 expression at 80 uM incubated for 24 hrs by Western blotting analysis; format: functional, cell-based; details: U-87MG ATCC
U-87 MG [23] = experiment: Antitumor activity in human U87 cells assessed as upregulation of cleaved caspase-3 expression at 80 uM incubated for 24 hrs by Western blotting analysis; format: functional, cell-based; details: U-87MG ATCC
U-87 MG [24] = experiment: Antitumor activity against human U87 cells xenografted in Balb/c mouse assessed as reduction in tumor size at 10 mg/kg,ip administered every 3 days measured after 27 days; format: functional, organism-based; details: U-87MG ATCC, time 27.0 day
[25] = Toxicity in Balb/c mouse xenografted with human U87 cells assessed as body weight loss at 10 mg/kg,ip administered every 3 days measured after 27 days; format: organism-based; details: in vivo, 648 h, time 27 day
[26] = Toxicity in Balb/c mouse xenografted with human U87 cells assessed as histological change in heart at 10 mg/kg,ip administered every 3 days measured after 27 days by hematoxylin and eosin staining based assay; format: organism-based; details: in vivo, 648 h, time 27 day
[27] = Toxicity in Balb/c mouse xenografted with human U87 cells assessed as histological change in liver at 10 mg/kg,ip administered every 3 days measured after 27 days by hematoxylin and eosin staining based assay; format: organism-based; details: in vivo, 648 h, time 27 day
[28] = Toxicity in Balb/c mouse xenografted with human U87 cells assessed as histological change in spleen at 10 mg/kg,ip administered every 3 days measured after 27 days by hematoxylin and eosin staining based assay; format: organism-based; details: in vivo, 648 h, time 27 day
[29] = Toxicity in Balb/c mouse xenografted with human U87 cells assessed as histological change in lung at 10 mg/kg,ip administered every 3 days measured after 27 days by hematoxylin and eosin staining based assay; format: organism-based; details: in vivo, 648 h, time 27 day
[30] = Toxicity in Balb/c mouse xenografted with human U87 cells assessed as histological change in kidney at 10 mg/kg,ip administered every 3 days measured after 27 days by hematoxylin and eosin staining based assay; format: organism-based; details: in vivo, 648 h, time 27 day
[31] = Toxicity in Balb/c mouse xenografted with human U87 cells assessed as histological change in brain at 10 mg/kg,ip administered every 3 days measured after 27 days by hematoxylin and eosin staining based assay; format: organism-based; details: in vivo, 648 h, time 27 day
[32] = Toxicity in Balb/c mouse xenografted with human U87 cells assessed as histological change in heart at 10 mg/kg,ip administered every 3 days measured after 27 days by TUNEL staining based assay; format: organism-based; details: in vivo, 648 h, time 27 day
[33] = Toxicity in Balb/c mouse xenografted with human U87 cells assessed as histological change in liver at 10 mg/kg,ip administered every 3 days measured after 27 days by TUNEL staining based assay; format: organism-based; details: in vivo, 648 h, time 27 day
[34] = Toxicity in Balb/c mouse xenografted with human U87 cells assessed as histological change in spleen at 10 mg/kg,ip administered every 3 days measured after 27 days by TUNEL staining based assay; format: organism-based; details: in vivo, 648 h, time 27 day
[35] = Toxicity in Balb/c mouse xenografted with human U87 cells assessed as histological change in lung at 10 mg/kg,ip administered every 3 days measured after 27 days by TUNEL staining based assay; format: organism-based; details: in vivo, 648 h, time 27 day
[36] = Toxicity in Balb/c mouse xenografted with human U87 cells assessed as histological change in kidney at 10 mg/kg,ip administered every 3 days measured after 27 days by TUNEL staining based assay; format: organism-based; details: in vivo, 648 h, time 27 day
[37] = Toxicity in Balb/c mouse xenografted with human U87 cells assessed as histological change in brain at 10 mg/kg,ip administered every 3 days measured after 27 days by TUNEL staining based assay; format: organism-based; details: in vivo, 648 h, time 27 day

pIC50 (U-87 MG [1]): 4.18 | pIC50 (MCF7): 2.83 | pIC50 (HCT-116): 4.24 | solubility kinetic at 24 h [2]: 0.03 µM (≈ 8.56 ng/mL) | Papp A→B at 2 h, 2 µM [3]: 25.7 ×10⁻⁶ cm/s | Papp B→A at 2 h, 2 µM [4]: 13.3 ×10⁻⁶ cm/s | efflux ratio at 2 h, 2 µM [5]: 0.52 | half-life [6]: > 2.42 h | remaining at 1 h [7]: 82.8%
Structure (SMILES): CC(C)[C@H]1CC[C@@H](C)C[C@@H]1N1C(=O)c2ccccc2C1=O
pIC50 (KYSE-150 cell line): 3.01 | Activity (U-87 MG [8]): 90% | Activity (U-87 MG [9]): Active; Significantly Increased Activity Observed | Activity (U-87 MG [10]): Active | Activity (U-87 MG [11]): Active | Activity (U-87 MG [12]): Active | Activity (U-87 MG [13]): inactive | Activity (U-87 MG [14]): inactive | Activity (U-87 MG [15]): inactive | inhibition (U-87 MG [16]): Active | inhibition (U-87 MG [17]): Active | Activity (HUVEC): Active | Activity (U-87 MG [18]): Active | Activity (U-87 MG [19]): Active | Activity (U-87 MG [20]): Active | Activity (U-87 MG [21]): Active | Activity (U-87 MG [22]): Active | Activity (U-87 MG [23]): Active | Activity (U-87 MG [24]): Active | Activity [25]: Non-toxic | Activity [26]: Non-toxic | Activity [27]: Non-toxic | Activity [28]: Non-toxic | Activity [29]: Non-toxic | Activity [30]: Non-toxic | Activity [31]: Non-toxic | Activity [32]: Non-toxic | Activity [33]: Non-toxic | Activity [34]: Non-toxic | Activity [35]: Non-toxic | Activity [36]: Non-toxic | Activity [37]: Non-toxic

Reference: ChEMBL document CHEMBL6078673, “Synthesis and anti-tumor activity of menthylamine derivatives: Focusing on the potent inhibitory effect of compound W8 on glioma growth” (Bioorg Med Chem, 2025)
